Test results reported in patent US20260078130A1, “NAMPT MODULATORS, PREPARATIONS, AND USES THEREOF” (SIRONAX LTD., priority 2022, published 2026).
Where two headings read alike, the source gives them in different places.

Molecular target: T1, human enzyme NAMPT (full length) (Homo sapiens, UniProt P43490)
T1 construct: human enzyme NAMPT (full length)
Assay: NMN fluorescence biochemical assay (stimulation of NMN synthesis by NAMPT)
Settings: for EC50: concentration giving half-maximal activation, read-out: Enzymatic EC50; for Enzymatic Emax: fold change of maximal activation compared to DMSO
Method: Certain compounds described herein were assayed for their ability to stimulate the synthesis of nicotinamide mononucleotide (NMN) by human enzyme NAMPT (full length). The enzymatic assay was performed in a 384-well plate using a TMD buffer (50 mM Tris-HCl, 10 mM MgCl2, 2 mM DTT, pH 7.5). Purified NAMPT (100 nM) was pre-incubated with 0.2 μL. DMSO solution of the test compound (with a series of concentrations) in 10 μL TMD buffer for 15 min at 37° C. The reaction was initiated by adding 10 μL solution of NAM (50 μM), PRPP (100 μM), and ATP (4 mM) in TMD buffer. After 1 h of incubation at 37 T, an aliquot (20 μL) of the NMN-containing sample was sequentially mixed with 5 μL of 20% acetophenone (in DMSO) and 5 μL of 2M KOH. The mixture was placed on ice for 10 min. Next, 22.5 μL of 100% formic acid was added to each sample, vortexed, and then incubated at 37° C. for 20 min. Fluorescence (Ex/Em=382/445 nm) was measured using an Envision plate reader. The potency measurements for the test compounds were quantified and represented as EC50 (concentration of a compound that gives half-maximal activation) and Emax (fold change of a compound's maximal activation compared to DMSO).

[1] = NMN synthesis by purified human NAMPT (100 nM)
[2] = NMN fluorescence assay, purified human NAMPT 100 nM

T1 sequence (P43490 whole entry): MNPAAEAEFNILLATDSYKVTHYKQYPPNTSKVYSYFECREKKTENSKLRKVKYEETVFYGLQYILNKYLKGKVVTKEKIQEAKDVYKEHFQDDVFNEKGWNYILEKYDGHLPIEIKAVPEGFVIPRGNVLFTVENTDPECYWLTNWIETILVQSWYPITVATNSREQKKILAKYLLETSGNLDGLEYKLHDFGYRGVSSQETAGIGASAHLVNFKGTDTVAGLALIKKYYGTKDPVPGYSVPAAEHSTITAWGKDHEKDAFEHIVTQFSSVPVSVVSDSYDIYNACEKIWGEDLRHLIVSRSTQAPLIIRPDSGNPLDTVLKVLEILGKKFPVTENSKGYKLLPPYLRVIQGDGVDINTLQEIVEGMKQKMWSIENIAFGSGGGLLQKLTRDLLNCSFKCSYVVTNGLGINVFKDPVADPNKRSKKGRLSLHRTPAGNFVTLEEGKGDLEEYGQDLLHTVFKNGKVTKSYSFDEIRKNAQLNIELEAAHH

O=C1c2ccccc2C(Cc2ncccc2Br)N1Cc1cc[nH]c(=O)c1 (stereo not shown) [Compound 266, 3-((3-bromopyridin-2-yl)methyl)-2-((2-oxo-1,2-dihydropyridin-4-yl)methyl)isoindolin-1-one]
EC50 [1]: ≥ 5 µM
Enzymatic Emax: A (A>3)

N#Cc1nccc(Cl)c1CC1c2cc(C3COC3)ccc2C(=O)N1Cc1ccc2[nH]c(=O)oc2c1 (stereo not shown) [Compound 285, 4-chloro-3-((6-(oxetan-3-yl)-3-oxo-2-((2-oxo-2,3-dihydrobenzo[d]oxazol-6-yl)methyl)isoindolin-1-yl)methyl)picolinonitrile]
EC50 [1]: < 0.5 µM
Enzymatic Emax: B (3≥B>2)

O=C1c2ccccc2C(Cc2ncccc2Br)N1Cc1ccc2c(c1)nnn2O (stereo not shown) [Compound 288, 3-((3-bromopyridin-2-yl)methyl)-2-((1-hydroxy-1H-benzo[d][1,2,3]triazol-5-yl)methyl) isoindolin-1-one]
EC50 [1]: ≥ 5 µM
Enzymatic Emax: C (2≥C)

N#Cc1nccc(Cl)c1CC1c2cccc(F)c2C(=O)N1Cc1ccc2[nH]c(=O)oc2c1 (stereo not shown) [Compound 286, 4-chloro-3-((4-fluoro-3-oxo-2-((2-oxo-2,3-dihydrobenzo[d]oxazol-6-yl)methyl)isoindolin-1-yl)methyl)picolinonitrile]
EC50 [1]: < 0.5 µM
Enzymatic Emax: B (3≥B>2)

Cn1ncc(Cl)c1CC1c2ccccc2C(=O)N1Cc1ccc2[nH]c(=S)oc2c1 (stereo not shown) [Compound 626, 3-((4-chloro-1-methyl-1H-pyrazol-5-yl)methyl)-2-((2-thioxo-2,3-dihydrobenzo[d]oxazol-6-yl)methyl)isoindolin-1-one]
EC50 [2]: ≥ 5 µM

O=C1c2ccccc2C(Cc2ncccc2Br)N1Cc1ccc2[nH]c(Cl)nc2c1 (stereo not shown) [Compound 255, 3-((3-bromopyridin-2-yl)methyl)-2-((2-chloro-1H-benzo[d]imidazol-5-yl)methyl) isoindolin-1-one]
EC50 [1]: 0.5 to 5 µM
Enzymatic Emax: A (A>3)

CC1c2c(cccc2C2CC2)C(=O)N1Cc1ccc2[nH]c(=O)oc2c1 (stereo not shown) [Compound 245, 6-((4-cyclopropyl-3-methyl-1-oxoisoindolin-2-yl)methyl)benzo[d]oxazol-2(3H)-one]
EC50 [1]: ≥ 5 µM
Enzymatic Emax: B (3≥B>2)

N#CC1c2ccccc2C(=O)N1Cc1ccc(O)cc1 (stereo not shown) [Compound 28, 2-(4-hydroxybenzyl)-3-oxoisoindoline-1-carbonitrile]
EC50 [1]: ≥ 5 µM
Enzymatic Emax: A (A>3)

O=C1c2ccccc2C(Cc2ncccc2Br)N1C/C=C/c1n[nH]c(=O)o1 (stereo not shown) [Compound 458, (E)-5-(3-(1-((3-bromopyridin-2-yl)methyl)-3-oxoisoindolin-2-yl)prop-1-en-1-yl)-1,3,4-oxadiazol-2(3H)-one]
EC50 [2]: ≥ 5 µM
Enzymatic Emax: B (3≥B>2)

Cc1cc(Cl)n(CC2c3ccccc3C(=O)N2Cc2ccc3[nH]nnc3c2)n1 (stereo not shown) [Compound 355, 2-((1H-benzo[d][1,2,3]triazol-5-yl)methyl)-3-((5-chloro-3-methyl-1H-pyrazol-1-yl)methyl)isoindolin-1-one]
EC50 [2]: ≥ 5 µM
Enzymatic Emax: A (A>3)

Nc1nnc2cc(CN3C(=O)c4ccccc4C3Cc3ncccc3Br)ccn12 (stereo not shown) [Compound 269, 2-((3-amino-[1,2,4]triazolo[4,3-a]pyridin-7-yl)methyl)-3-((3-bromopyridin-2-yl)methyl) isoindolin-1-one]
EC50 [1]: ≥ 5 µM
Enzymatic Emax: B (3≥B>2)

Cn1nc(Cl)c(Cl)c1CC1c2ccccc2C(=O)N1C[C@H]1C[C@@]2(CNC(=O)O2)C1 (stereo partly shown) [Compound 499, (2s,4s)-2-((1-((3,4-dichloro-1-methyl-1H-pyrazol-5-yl)methyl)-3-oxoisoindolin-2-yl)methyl)-5-oxa-7-azaspiro[3.4]octan-6-one]
EC50 [2]: < 0.5 µM
Enzymatic Emax: B (3≥B>2)

COC1CN(Cc2ccc3c(c2)[C@H](C)N(Cc2ccc4[nH]c(=O)oc4c2)C3=O)C1 (single isomer, unassigned) [Compound 185]
EC50 [1]: ≥ 5 µM
Enzymatic Emax: B (3≥B>2)
